The values below come from patent publication US20240262857A1, “NOVEL UNIVERSAL ANTI-RNA VIRUS AGENTS” (priority 2021, published 2024).

Like-named read-outs stand apart in the source and are kept apart here. Where only a bound is given, the exact number is not on record here.

The subject of series [1] is SARS-CoV-2. As to the kind of experiment: microbe, parasite or virus in culture. The class given is cell-based.
Series [2] can be described thus: Cellular toxicity assay, Huh7 cells. The class given is cell-based. The following applies: human, read-out: Cytotoxicity CC50 Huh7.
A short description of series [3]: Cellular toxicity assay, PBM cells. The conditions noted are these: human.
Series [4] can be described thus: Cellular toxicity assay, CEM cells. The following applies: human.
A short description of series [5]: Cellular toxicity assay, Vero cells. The following applies: African green monkey.
Series [6] relates to HCoV-OC43. As to the kind of experiment: microbe, parasite or virus in culture. The class given is cell-based. The conditions noted are these: Betacoronavirus 1, OC43.
Series [7] concerns CEM cells. The series can be described thus: Cellular toxicity assay, CEM cells. The following applies: read-out: Cytotoxicity CC50 CEM; CEM cells.
For series [8], the system named is Vero cells. As to the kind of experiment: Cellular toxicity assay, Vero cells. The following applies: read-out: Cytotoxicity CC50 Vero; Vero cells.
Series [9] concerns Vero cells. The series can be described thus: Incubation of NHC in Vero cells, LC-MS/MS of deoxy-NHC derivatives. The following applies: 4 h at 37° C.
Series [10] has as its target T1, ribonucleotide reductase (RNR) (Homo sapiens, UniProt P23921).
T1 sequence (P23921 1-792): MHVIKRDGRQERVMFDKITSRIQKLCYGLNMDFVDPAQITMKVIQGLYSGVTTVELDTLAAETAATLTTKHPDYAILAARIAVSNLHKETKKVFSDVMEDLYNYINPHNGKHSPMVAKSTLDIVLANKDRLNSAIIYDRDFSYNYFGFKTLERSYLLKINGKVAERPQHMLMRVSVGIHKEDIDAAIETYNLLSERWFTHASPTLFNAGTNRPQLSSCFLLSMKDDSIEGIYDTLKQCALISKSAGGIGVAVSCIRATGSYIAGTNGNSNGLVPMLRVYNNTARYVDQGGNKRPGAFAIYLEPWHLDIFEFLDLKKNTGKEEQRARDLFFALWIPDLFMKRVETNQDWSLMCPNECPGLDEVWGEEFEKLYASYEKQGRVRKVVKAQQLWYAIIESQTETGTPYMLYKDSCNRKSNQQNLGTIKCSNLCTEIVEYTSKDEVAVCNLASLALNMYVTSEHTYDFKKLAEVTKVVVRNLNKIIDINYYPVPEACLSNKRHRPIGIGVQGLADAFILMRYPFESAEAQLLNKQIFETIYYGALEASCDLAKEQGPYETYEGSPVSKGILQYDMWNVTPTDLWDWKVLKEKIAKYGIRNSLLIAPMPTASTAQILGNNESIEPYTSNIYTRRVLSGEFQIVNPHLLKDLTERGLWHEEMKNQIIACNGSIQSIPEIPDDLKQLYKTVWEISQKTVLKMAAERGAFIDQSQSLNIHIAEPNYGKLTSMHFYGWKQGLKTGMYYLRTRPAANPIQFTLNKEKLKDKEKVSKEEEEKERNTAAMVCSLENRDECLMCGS
T1 sequence (P31350 1-389 partner): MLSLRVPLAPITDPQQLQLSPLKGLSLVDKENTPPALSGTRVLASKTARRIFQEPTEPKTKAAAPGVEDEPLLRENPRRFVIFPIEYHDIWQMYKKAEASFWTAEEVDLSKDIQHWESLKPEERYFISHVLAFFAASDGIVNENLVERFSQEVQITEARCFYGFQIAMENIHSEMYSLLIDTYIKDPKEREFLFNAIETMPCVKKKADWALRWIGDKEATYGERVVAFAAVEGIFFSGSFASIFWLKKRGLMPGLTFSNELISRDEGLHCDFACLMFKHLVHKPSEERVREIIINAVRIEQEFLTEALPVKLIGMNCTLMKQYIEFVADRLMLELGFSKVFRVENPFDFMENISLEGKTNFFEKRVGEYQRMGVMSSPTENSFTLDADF

The mark [11] stands for this setting: Severe acute respiratory syndrome coronavirus 2, Calu-3, Calu3 cells, read-out: Anti-SARS-CoV-2 Activity (Calu3) EC50.
The mark [12] stands for this setting: Severe acute respiratory syndrome coronavirus 2, Calu-3, Calu3 cells, read-out: Anti-SARS-CoV-2 Activity (Calu3) EC90.
Where [13] appears, read: Severe acute respiratory syndrome coronavirus 2, Vero cells, read-out: Anti-SARS-CoV-2 Activity (Vero) EC50.
The mark [14] stands for this setting: Severe acute respiratory syndrome coronavirus 2, Vero cells, read-out: Anti-SARS-CoV-2 Activity (Vero) EC90.

The term EC50 denotes the midpoint of the concentration-response curve. A word on the EC90: it is the concentration at which the effect reaches the 90% level. A word on the CC50: it is the concentration giving 50% cytotoxicity. Take `CC1(O)C(O)[C@H](n2ccc(NO)nc2=O)O[C@@H]1CO` (stereo partly shown): the figures for the EC50 in [1] (setting [11]) and in series [1] (setting [13]) were > 100000 nM and 600 nM, respectively. Moreover, the EC90 is > 100000 nM in series [1] (setting [12]) and 7400 nM in series [1] (setting [14]). Further, the CC50 in series [2] was ≥ 100000 nM; in [3], > 100000 nM; in series [4] it was > 100000 nM; in [5], > 100000 nM.

`[2H]C1(O)C(O)[C@H](n2ccc(NO)nc2=O)O[C@@H]1CO` (stereo partly drawn) [D-NHC]: the values for the half-maximal effective concentration (EC50) in series [1] (setting [11]) and in [1] (setting [13]) were 200 nM and 100 nM, respectively. Moreover, the figures for the EC90 in series [1] (setting [12]) and in series [1] (setting [14]) were 900 nM and 250 nM, respectively. The CC50 in [2] is 27700 nM; in series [3], 24100 nM; in series [5], 41600 nM.

Regarding `O=c1nc(NO)ccn1[C@@H]1O[C@H](CO)[C@@H](O)[C@H]1O` [NHC, N^4-hydroxycytidine], the EC50 came out at 600 nM in series [1] (setting [11]); 300 nM in [1] (Severe acute respiratory syndrome coronavirus 2, read-out: Anti-SARS-Cov-2 EC50); 200 nM in series [1] (setting [13]); 800 nM in series [6] (read-out: Anti-Hcov-OC43 EC50). For the same compound, the EC90 in series [1] (setting [12]) stood at 2000 nM; in series [1] (setting [14]), 420 nM; in series [1] (Severe acute respiratory syndrome coronavirus 2, read-out: Anti-SARS-Cov-2 EC90), 800 nM; in series [6] (read-out: Anti-Hcov-OC43 EC90) it was 1800 nM. Moreover, the values for the 50% cytotoxic concentration (CC50) in series [7] and in series [8] were 2600 nM and 16500 nM, respectively. The “deoxy-NHC-TP detected in vero cells” value in series [9] (10 μM NHC, cell pellet) is “not”; in series [9] (50 μM NHC, cell pellet), “trace amount”. The “level of deoxy-NHC, -MP and -DP in vero cells” value in series [9] (cell pellet) is “below limit of detection”. In addition, in series [9] (supernatant), the “deoxy-NHC or its derivatives in vero cell medium” value is listed as “no deoxy-NHC or its derivatives was detected”.

Regarding `O=c1nc(NO)ccn1[C@@H]1O[C@H](COP(=O)(O)OP(=O)(O)O)[C@@H](O)[C@H]1O` [NHC-DP], in series [10], the “ratio diphosphate : 2'-deoxy-diphosphate in the samples after RNR reaction” value is “around 100:0.1” and the “ratio triphosphate : 2'-deoxy-triphosphate in the samples after RNR reaction” value is reported as ~100:0.009.
